# Experimental data reported in patent publication US20210038607A1, “OXADIAZOLYLTHIOPHENE DERIVATIVES USEFUL AS HISTONE DEACETYLASE INHIBITORS” (Karus Therapeutics Limited, priority 2018, published 2021).
# Tests used:
# [1] = target: T1, Complex of human HDAC3 and human NCOR2 (Homo sapiens, UniProt O15379); assay: HDAC3 biochemical assay, AMC-labeled peptide substrate; details: read-out: HDAC Isoform IC50 (nM) 3
# T1 construct: full length with C-terminal His tag, MW=49.7 kDa; His (C); host or cells: baculovirus expression system (co-expressed)
# Method in brief: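 Two-stage fluorogenic read: compounds incubated 1 h at 30° C with 50 μM RHKK(Ac)AMC and 0.1 ng/ul HDAC3–NCOR2(395-489) complex (Tris pH8.0, NaCl, KCl, MgCl2, BSA, 1% DMSO). Developer digestion of deacetylated product gives signal at Ex 360/Em 460.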
# [2] = target: T2, Human HDAC8 (Homo sapiens, UniProt Q9BY41); assay: HDAC8 biochemical assay, AMC-labeled peptide substrate; details: read-out: HDAC Isoform IC50 (nM) 8
# T2 construct: full length with C-terminal His tag, MW=42.6 kDa; His (C); host or cells: baculovirus expression system
# T2 sequence (Q9BY41 1-377): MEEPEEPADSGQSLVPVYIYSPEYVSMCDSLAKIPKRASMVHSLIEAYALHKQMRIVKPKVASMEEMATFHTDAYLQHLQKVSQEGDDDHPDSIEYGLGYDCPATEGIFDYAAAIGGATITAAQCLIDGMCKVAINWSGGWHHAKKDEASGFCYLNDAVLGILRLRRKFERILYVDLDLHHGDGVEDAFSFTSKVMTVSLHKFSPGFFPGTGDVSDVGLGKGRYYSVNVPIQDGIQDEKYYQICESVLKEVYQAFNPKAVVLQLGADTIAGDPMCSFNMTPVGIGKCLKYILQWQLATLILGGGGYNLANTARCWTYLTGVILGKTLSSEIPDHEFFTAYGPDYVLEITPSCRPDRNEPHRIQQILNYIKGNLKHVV
# Method in brief: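 Two-step fluorogenic readout: compounds and enzyme deacetylate 100 µM RHK(Ac)K(Ac)AMC for 2 h at 30° C (pH8.0 Tris buffer, BSA, 1% DMSO final), then developer releases AMC, read at 360/460 Ex/Em. Enzyme: 1 ng/ul full-length His-tagged human HDAC8 from baculovirus.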
# [3] = target: T3, Human HDAC5 (Homo sapiens, UniProt Q9UQL6); assay: HDAC5 biochemical assay, class IIa-specific substrate; details: read-out: HDAC Isoform IC50 (nM) 5
# T3 construct: full length with C-terminal His tag, MW=51.1 kDa; His (C); host or cells: baculovirus expression system
# Method in brief: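 Two-step fluorogenic read-out: deacetylated trifluoroacetyl-lysine AMC substrate (50 μM) digested by developer, measured at Ex/Em 360/460. Deacetylation step: 0.05 ng/ul His-tagged full-length baculoviral enzyme with compound, 30 min, room temperature, pH 8.0 Tris with 1 mg/mL BSA and 1% DMSO.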
# [4] = target: T4, Human HDAC9 (Homo sapiens, UniProt Q9UKV0); assay: HDAC9 biochemical assay, class IIa-specific substrate; details: read-out: HDAC Isoform IC50 (nM) 9
# T4 construct: amino acids 604-1066 with C-terminal His tag; His (C); host or cells: baculovirus expression system
# Method in brief: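 HDAC9 residues 604-1066 (C-terminal His tag, baculovirus-expressed) at 0.06 ng/ul with 50 μM class IIa substrate Boc-Lys(trifluoroacetyl)-AMC in Tris-HCl pH 8.0 buffer with BSA and 1% DMSO. 30 min at room temperature, then developer added; fluorescence read at 360/460 nm Ex/Em.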
# [5] = target: T5, Human HDAC4 (Homo sapiens, UniProt P56524); assay: HDAC4 biochemical assay, class IIa-specific substrate; details: read-out: HDAC Isoform IC50 (nM) 4
# T5 construct: amino acids 627-1085 with N-terminal GST tag; GST (N); host or cells: baculovirus expression system
# Method in brief: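 Two-step fluorogenic read-out: deacetylated BOC-Lys(trifluoroacetyl)-AMC (50 μM) was digested by developer and measured at Ex/Em 360/460. Deacetylation by 0.004 ng/ul HDAC4 (aa 627-1085, N-terminal GST) ran 30 min at room temperature, pH 8.0 Tris buffer, 1 mg/mL BSA, 1% DMSO.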
# [6] = target: T6, Human HDAC2 (Homo sapiens, UniProt Q92769); assay: HDAC2 biochemical assay, AMC-labeled peptide substrate; details: read-out: HDAC Isoform IC50 (nM) 2
# T6 construct: full length with C-terminal GST-tag; GST (C); host or cells: baculovirus expression system
# Method in brief: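 Full-length human HDAC2 with C-terminal GST tag, baculovirus-expressed, at 0.07 ng/ul with 50 μM RHKK(Ac)AMC substrate in Tris-HCl pH8.0 buffer with BSA, 1% DMSO final. Incubated 1 hour at 30° C with compounds, then developer added; fluorescence read at 360/460 Ex/Em.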
# T5 sequence (P56524 627-1084 limits assumed): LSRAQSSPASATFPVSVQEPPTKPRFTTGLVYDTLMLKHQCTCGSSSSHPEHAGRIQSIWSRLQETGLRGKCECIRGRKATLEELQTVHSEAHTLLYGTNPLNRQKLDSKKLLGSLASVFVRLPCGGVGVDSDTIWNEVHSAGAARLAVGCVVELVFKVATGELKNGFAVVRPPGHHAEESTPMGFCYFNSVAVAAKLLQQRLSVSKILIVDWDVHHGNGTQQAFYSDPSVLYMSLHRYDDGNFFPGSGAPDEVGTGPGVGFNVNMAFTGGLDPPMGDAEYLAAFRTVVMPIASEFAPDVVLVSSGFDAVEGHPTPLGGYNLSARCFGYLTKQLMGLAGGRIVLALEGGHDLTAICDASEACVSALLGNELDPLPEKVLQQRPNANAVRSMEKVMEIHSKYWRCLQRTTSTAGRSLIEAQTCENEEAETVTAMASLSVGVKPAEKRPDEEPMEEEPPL
# T1 sequence (O15379 whole entry, canonical isoform): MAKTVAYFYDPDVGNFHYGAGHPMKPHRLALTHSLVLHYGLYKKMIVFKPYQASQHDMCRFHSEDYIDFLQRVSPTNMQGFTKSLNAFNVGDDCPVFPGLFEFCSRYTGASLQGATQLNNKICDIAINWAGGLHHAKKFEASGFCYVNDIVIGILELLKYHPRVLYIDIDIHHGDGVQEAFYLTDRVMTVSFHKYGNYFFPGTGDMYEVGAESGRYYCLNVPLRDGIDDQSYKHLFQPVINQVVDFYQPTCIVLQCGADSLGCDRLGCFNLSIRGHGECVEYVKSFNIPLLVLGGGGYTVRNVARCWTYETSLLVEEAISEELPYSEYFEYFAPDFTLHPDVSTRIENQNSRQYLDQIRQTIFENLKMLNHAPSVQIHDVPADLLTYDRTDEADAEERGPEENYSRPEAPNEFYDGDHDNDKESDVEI
# T1 sequence (Q9Y618 395-489 partner limits assumed): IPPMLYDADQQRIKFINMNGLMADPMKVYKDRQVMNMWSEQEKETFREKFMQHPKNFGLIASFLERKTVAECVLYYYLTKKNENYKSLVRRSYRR
# T3 sequence (Q9UQL6 656-1122 limits assumed): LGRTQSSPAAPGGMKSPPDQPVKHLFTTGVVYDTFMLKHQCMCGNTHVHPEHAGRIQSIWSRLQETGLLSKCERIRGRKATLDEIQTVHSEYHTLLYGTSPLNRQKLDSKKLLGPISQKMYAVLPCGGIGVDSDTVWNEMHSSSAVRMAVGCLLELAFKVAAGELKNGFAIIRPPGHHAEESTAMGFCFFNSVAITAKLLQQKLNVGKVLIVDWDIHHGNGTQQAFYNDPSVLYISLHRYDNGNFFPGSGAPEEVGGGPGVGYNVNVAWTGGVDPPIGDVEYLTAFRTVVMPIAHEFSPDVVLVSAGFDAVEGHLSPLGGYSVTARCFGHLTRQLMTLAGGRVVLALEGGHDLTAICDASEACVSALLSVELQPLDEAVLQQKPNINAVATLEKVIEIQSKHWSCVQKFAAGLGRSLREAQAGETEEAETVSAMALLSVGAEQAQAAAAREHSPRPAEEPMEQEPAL
# T6 sequence (Q92769 whole entry, canonical isoform): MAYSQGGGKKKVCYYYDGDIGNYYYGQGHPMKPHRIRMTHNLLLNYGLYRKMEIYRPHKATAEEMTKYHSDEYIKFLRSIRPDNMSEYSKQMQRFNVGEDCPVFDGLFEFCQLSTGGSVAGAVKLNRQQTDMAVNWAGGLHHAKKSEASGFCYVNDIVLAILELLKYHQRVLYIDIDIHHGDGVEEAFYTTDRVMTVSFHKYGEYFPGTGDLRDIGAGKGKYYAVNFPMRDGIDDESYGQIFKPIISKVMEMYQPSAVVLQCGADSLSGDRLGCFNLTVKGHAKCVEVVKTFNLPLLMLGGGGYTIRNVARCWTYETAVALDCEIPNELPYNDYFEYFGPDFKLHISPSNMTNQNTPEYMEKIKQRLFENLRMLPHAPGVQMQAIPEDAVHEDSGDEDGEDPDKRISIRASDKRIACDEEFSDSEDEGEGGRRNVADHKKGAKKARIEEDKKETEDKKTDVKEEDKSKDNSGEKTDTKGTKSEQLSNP
# T4 sequence (Q9UKV0 604-1066 isoform Q9UKV0-5): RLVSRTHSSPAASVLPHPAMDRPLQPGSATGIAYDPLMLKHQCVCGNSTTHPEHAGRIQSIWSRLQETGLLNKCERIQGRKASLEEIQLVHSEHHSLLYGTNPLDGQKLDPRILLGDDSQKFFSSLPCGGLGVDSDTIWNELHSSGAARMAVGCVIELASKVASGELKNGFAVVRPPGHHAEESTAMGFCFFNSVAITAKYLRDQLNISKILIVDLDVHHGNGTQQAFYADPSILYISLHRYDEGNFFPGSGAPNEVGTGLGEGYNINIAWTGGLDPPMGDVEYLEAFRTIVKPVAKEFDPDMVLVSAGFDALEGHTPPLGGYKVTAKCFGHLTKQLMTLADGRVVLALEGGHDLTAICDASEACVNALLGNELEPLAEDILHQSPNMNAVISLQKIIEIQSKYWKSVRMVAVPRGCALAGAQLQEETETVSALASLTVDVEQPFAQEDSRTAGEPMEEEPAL
Structure (SMILES),IC50 [1] [nM],IC50 [2] [nM],IC50 [3] [nM],IC50 [4] [nM],IC50 [5] [nM],IC50 [6] [nM]
"FC(F)(F)c1cncc(N(Cc2ccc(-c3noc(C(F)(F)F)n3)s2)c2cnccn2)n1 [Example BR, N-(Pyrazin-2-yl)-6-(trifluoromethyl)-N-({5-[5-(trifluoromethyl)-1,2,4-oxadiazol-3-yl]thiophen-2-yl}methyl)pyrazin-2-amine]",> 10000,≤ 10000,≤ 10000,≤ 10000,≤ 10000,> 10000
"COC1CN(C(=O)c2cnnc(N(Cc3ccc(-c4noc(C(F)(F)F)n4)s3)c3cnccn3)c2)C1 [Example DZ, 5-(3-Methoxyazetidine-1-carbonyl)-N-(pyrazin-2-yl)-N-({5-[5-(trifluoromethyl)-1,2,4-oxadiazol-3-yl]thiophen-2-yl}methyl)pyridazin-3-amine]",> 10000,≤ 10000,≤ 1000,≤ 10000,≤ 10000,> 10000
"CNC(=O)c1ccc(N(Cc2ccc(-c3noc(C(F)(F)F)n3)s2)c2cnccn2)nn1 [Example FC, N-Methyl-6-[(pyrazin-2-yl)({5-[5-(trifluoromethyl)-1,2,4-oxadiazol-3-yl]thiophen-2-yl}methyl)amino]pyridazine-3-carboxamide]",≤ 10000,≤ 10000,≤ 500,≤ 10000,≤ 1000,> 10000
"O=C(c1ccc(N(Cc2ccc(-c3noc(C(F)(F)F)n3)s2)c2cnccn2)nn1)N1CCOCC1 [Example DS, 6-(Morpholine-4-carbonyl)-N-(pyrazin-2-yl)-N-({5-[5-(trifluoromethyl)-1,2,4-oxadiazol-3-yl]thiophen-2-yl}methyl)pyridazin-3-amine]",≤ 10000,≤ 10000,≤ 500,≤ 1000,≤ 500,> 10000
"COc1cncc(N(Cc2ccc(-c3noc(C(F)(F)F)n3)s2)c2cnccn2)n1 [Example BQ, 6-Methoxy-N-(pyrazin-2-yl)-N-({5-[5-(trifluoromethyl)-1,2,4-oxadiazol-3-yl]thiophen-2-yl}methyl)pyrazin-2-amine]",> 10000,≤ 10000,≤ 1000,≤ 10000,≤ 10000,> 10000
"COc1nccnc1N(Cc1ccc(-c2noc(C(F)(F)F)n2)s1)c1cnccn1 [Example BF, 3-Methoxy-N-(pyrazin-2-yl)-N-({5-[5-(trifluoromethyl)-1,2,4-oxadiazol-3-yl]thiophen-2-yl}methyl)pyrazin-2-amine]",> 10000,≤ 10000,≤ 10000,≤ 10000,≤ 10000,> 10000

# More lines, now with the values ahead:
IC50 [1] [nM],IC50 [2] [nM],IC50 [3] [nM],IC50 [4] [nM],IC50 [5] [nM],IC50 [6] [nM],Structure (SMILES)
> 10000,≤ 10000,≤ 10000,≤ 10000,≤ 10000,> 10000,"OC1(c2cnnc(N(Cc3ccc(-c4noc(C(F)(F)F)n4)s3)c3cnccn3)c2)COC1 [Example GW, 3-{6-[(Pyrazin-2-yl)({5-[5-(trifluoromethyl)-1,2,4-oxadiazol-3-yl]thiophen-2-yl}methyl)amino]pyridazin-4-yl}oxetan-3-ol]"
> 10000,≤ 10000,≤ 1000,≤ 10000,≤ 10000,> 10000,"COC1CN(Cc2ccnc(N(Cc3ccc(-c4noc(C(F)(F)F)n4)s3)c3cnccn3)c2)C1 [Example GH, N-{4-[(3-Methoxyazetidin-1-yl)methyl]pyridin-2-yl}-N-({5-[5-(trifluoromethyl)-1,2,4-oxadiazol-3-yl]thiophen-2-yl}methyl)pyrazin-2-amine]"
≤ 10000,≤ 10000,≤ 500,≤ 10000,≤ 500,> 10000,"O=C(c1ccc(N(Cc2ccc(-c3noc(C(F)(F)F)n3)s2)c2cnccn2)nn1)N1C[C@@H]2C[C@H]1CO2 [Example FE, 6-[(1S,4S)-2-Oxa-5-azabicyclo[2.2.1]heptane-5-carbonyl]-N-(pyrazin-2-yl)-N-({5-[5-(trifluoromethyl)-1,2,4-oxadiazol-3-yl]thiophen-2-yl}methyl)pyridazin-3-amine]"
> 10000,≤ 10000,≤ 1000,≤ 10000,≤ 10000,> 10000,"O=C(c1cnnc(N(Cc2ccc(-c3noc(C(F)(F)F)n3)s2)c2cnccn2)c1)N1CC(F)(F)C1 [Example FT, 5-(3,3-Difluoroazetidine-1-carbonyl)-N-(pyrazin-2-yl)-N-({5-[5-(trifluoromethyl)-1,2,4-oxadiazol-3-yl]thiophen-2-yl}methyl)pyridazin-3-amine]"
> 10000,≤ 10000,≤ 500,≤ 10000,≤ 1000,> 10000,"CC(C)OC1CN(C(=O)c2cnnc(N(Cc3ccc(-c4noc(C(F)(F)F)n4)s3)c3cnccn3)c2)C1 [Example GC, 5-[3-(Propan-2-yloxy)azetidine-1-carbonyl]-N-(pyrazin-2-yl)-N-({5-[5-(trifluoromethyl)-1,2,4-oxadiazol-3-yl]thiophen-2-yl}methyl)pyridazin-3-amine]"
